± gives the uncertainty stated by the source.
Assay: xn = mol fraction of the nth substance listed

CCCCOC(=O)c1ccccc1 + CCCCCCCCCC
101 kPa
Conditions | viscosity [mPa·s]
298.15 K, x2 = 0.0918 | 2.334 ± 0.073
298.15 K, x2 = 0.1358 | 2.183 ± 0.069
298.15 K, x2 = 0.1792 | 2.041 ± 0.064
298.15 K, x2 = 0.2262 | 1.896 ± 0.06
298.15 K, x2 = 0.2664 | 1.788 ± 0.056
298.15 K, x2 = 0.3097 | 1.678 ± 0.053
298.15 K, x2 = 0.3591 | 1.567 ± 0.049
298.15 K, x2 = 0.4089 | 1.47 ± 0.046
298.15 K, x2 = 0.4486 | 1.401 ± 0.044
298.15 K, x2 = 0.4948 | 1.329 ± 0.042
298.15 K, x2 = 0.5503 | 1.25 ± 0.04
298.15 K, x2 = 0.5873 | 1.204 ± 0.038
298.15 K, x2 = 0.6281 | 1.153 ± 0.036
298.15 K, x2 = 0.6957 | 1.077 ± 0.034
298.15 K, x2 = 0.741 | 1.032 ± 0.033
298.15 K, x2 = 0.7899 | 0.988 ± 0.031
298.15 K, x2 = 0.8403 | 0.946 ± 0.03
298.15 K, x2 = 0.8939 | 0.908 ± 0.029
298.15 K, x2 = 0.9566 | 0.87 ± 0.028
308.15 K, x2 = 0.0669 | 1.981 ± 0.062
308.15 K, x2 = 0.1091 | 1.855 ± 0.058
308.15 K, x2 = 0.1542 | 1.738 ± 0.055
308.15 K, x2 = 0.1965 | 1.637 ± 0.052
308.15 K, x2 = 0.245 | 1.534 ± 0.048
308.15 K, x2 = 0.2934 | 1.443 ± 0.046
308.15 K, x2 = 0.3293 | 1.381 ± 0.044
308.15 K, x2 = 0.3765 | 1.306 ± 0.041
308.15 K, x2 = 0.4326 | 1.224 ± 0.039
308.15 K, x2 = 0.4647 | 1.182 ± 0.037
308.15 K, x2 = 0.5148 | 1.12 ± 0.035
308.15 K, x2 = 0.563 | 1.063 ± 0.034
308.15 K, x2 = 0.6162 | 1.008 ± 0.032
308.15 K, x2 = 0.6547 | 0.972 ± 0.031
308.15 K, x2 = 0.7081 | 0.924 ± 0.029
308.15 K, x2 = 0.7512 | 0.891 ± 0.028
308.15 K, x2 = 0.8136 | 0.846 ± 0.027
308.15 K, x2 = 0.8573 | 0.818 ± 0.026
308.15 K, x2 = 0.9215 | 0.783 ± 0.025
318.15 K, x2 = 0.0724 | 1.636 ± 0.052
318.15 K, x2 = 0.0793 | 1.618 ± 0.051
318.15 K, x2 = 0.1214 | 1.527 ± 0.048
318.15 K, x2 = 0.1698 | 1.43 ± 0.045
318.15 K, x2 = 0.2143 | 1.349 ± 0.043
318.15 K, x2 = 0.2625 | 1.268 ± 0.04
318.15 K, x2 = 0.3071 | 1.201 ± 0.038
318.15 K, x2 = 0.3576 | 1.129 ± 0.036
318.15 K, x2 = 0.4024 | 1.073 ± 0.034
318.15 K, x2 = 0.4543 | 1.013 ± 0.032
318.15 K, x2 = 0.4998 | 0.966 ± 0.031
318.15 K, x2 = 0.551 | 0.917 ± 0.029
318.15 K, x2 = 0.5985 | 0.876 ± 0.028
318.15 K, x2 = 0.6498 | 0.834 ± 0.026
318.15 K, x2 = 0.6927 | 0.804 ± 0.026
318.15 K, x2 = 0.7509 | 0.764 ± 0.024
318.15 K, x2 = 0.8026 | 0.733 ± 0.023
318.15 K, x2 = 0.901 | 0.682 ± 0.022
318.15 K, x2 = 0.9265 | 0.673 ± 0.021

CC(C)(C)O + CC#N
viscosity [mPa·s]
Conditions | 298.15 K | 303.15 K | 308.15 K | 313.15 K
101 kPa, x1 = 0.0566 | 0.3785 ± 0.0041 | 0.3701 ± 0.004 | 0.3589 ± 0.0039 | –
101 kPa, x1 = 0.1198 | 0.4021 ± 0.0043 | 0.3935 ± 0.0042 | 0.3794 ± 0.0041 | –
101 kPa, x1 = 0.1887 | 0.4346 ± 0.0046 | 0.4229 ± 0.0045 | 0.4056 ± 0.0043 | –
101 kPa, x1 = 0.2685 | 0.4818 ± 0.005 | 0.461 ± 0.0048 | 0.4406 ± 0.0046 | –
101 kPa, x1 = 0.3568 | 0.5555 ± 0.0056 | 0.5226 ± 0.0053 | 0.4902 ± 0.0051 | –
101 kPa, x1 = 0.4511 | 0.6735 ± 0.0067 | 0.6105 ± 0.0061 | 0.5659 ± 0.0057 | –
101 kPa, x1 = 0.5606 | 0.9097 ± 0.0087 | 0.8128 ± 0.0079 | 0.7495 ± 0.0073 | –
101 kPa, x1 = 0.6858 | 1.341 ± 0.012 | 1.18 ± 0.011 | 1.058 ± 0.01 | –
101 kPa, x1 = 0.831 | 2.213 ± 0.02 | 1.884 ± 0.017 | 1.63 ± 0.015 | –
101.3 kPa, x2 = 0.1675 | 1.925 ± 0.045 | 1.606 ± 0.038 | 1.359 ± 0.032 | 1.158 ± 0.028
101.3 kPa, x2 = 0.3117 | 1.187 ± 0.029 | 1.035 ± 0.026 | 0.909 ± 0.023 | 0.805 ± 0.021
101.3 kPa, x2 = 0.4368 | 0.863 ± 0.022 | 0.756 ± 0.02 | 0.68 ± 0.018 | 0.615 ± 0.016
101.3 kPa, x2 = 0.5471 | 0.66 ± 0.017 | 0.604 ± 0.016 | 0.553 ± 0.015 | 0.509 ± 0.014
101.3 kPa, x2 = 0.6446 | 0.552 ± 0.015 | 0.511 ± 0.014 | 0.474 ± 0.013 | 0.442 ± 0.013
101.3 kPa, x2 = 0.73 | 0.476 ± 0.013 | 0.446 ± 0.013 | 0.418 ± 0.012 | 0.394 ± 0.012
101.3 kPa, x2 = 0.8084 | 0.428 ± 0.012 | 0.404 ± 0.012 | 0.382 ± 0.011 | 0.362 ± 0.011
101.3 kPa, x2 = 0.8784 | 0.394 ± 0.012 | 0.375 ± 0.011 | 0.357 ± 0.011 | 0.34 ± 0.011
101.3 kPa, x2 = 0.9421 | 0.376 ± 0.011 | 0.359 ± 0.011 | 0.342 ± 0.011 | 0.33 ± 0.01

CC(C)(C)O + CC(=O)N(C)C
303.15 K, 101 kPa
Conditions | viscosity [mPa·s]
x2 = 0.1094 | 2.544 ± 0.022
x2 = 0.2069 | 2.032 ± 0.018
x2 = 0.3062 | 1.651 ± 0.015
x2 = 0.4037 | 1.422 ± 0.013
x2 = 0.5026 | 1.255 ± 0.012
x2 = 0.6154 | 1.128 ± 0.011
x2 = 0.7028 | 1.046 ± 0.011
x2 = 0.8064 | 0.973 ± 0.01
x2 = 0.8954 | 0.924 ± 0.01

Oc1ccc2ccccc2c1 + CCCCCOC(C)=O
Conditions | viscosity [mPa·s]
298.15 K, 101 kPa, x2 = 0.5 | 1.598 ± 0.016

CC(C)(C)O + CC(C)=O
viscosity [mPa·s], 101 kPa
Conditions | x1 = 0.0784 | x1 = 0.1618 | x1 = 0.2497 | x1 = 0.3433 | x1 = 0.4398 | x1 = 0.5382 | x1 = 0.6472 | x1 = 0.7532 | x1 = 0.8729
298.15 K | 0.3321 ± 0.0049 | 0.3734 ± 0.005 | 0.4146 ± 0.0052 | 0.4676 ± 0.0053 | 0.5414 ± 0.0056 | 0.6566 ± 0.006 | 0.8929 ± 0.007 | 1.304 ± 0.0088 | 2.131 ± 0.013
303.15 K | 0.324 ± 0.0049 | 0.3649 ± 0.005 | 0.4058 ± 0.0051 | 0.4555 ± 0.0053 | 0.514 ± 0.0055 | 0.6108 ± 0.0058 | 0.8102 ± 0.0066 | 1.186 ± 0.0082 | 1.881 ± 0.012
308.15 K | 0.3158 ± 0.0048 | 0.3535 ± 0.0049 | 0.3941 ± 0.0051 | 0.4405 ± 0.0052 | 0.4928 ± 0.0054 | 0.583 ± 0.0057 | 0.7695 ± 0.0064 | 1.073 ± 0.0077 | 1.632 ± 0.01

CC(C)(C)O + CS(C)=O
viscosity [mPa·s], 101.3 kPa
Conditions | x2 = 0.095 | x2 = 0.1916 | x2 = 0.289 | x2 = 0.3874 | x2 = 0.5132 | x2 = 0.5873 | x2 = 0.6888 | x2 = 0.7916 | x2 = 0.8951
298.15 K | 3.564 ± 0.24 | 2.968 ± 0.2 | 2.53 ± 0.17 | 2.269 ± 0.15 | 2.07 ± 0.14 | 2.005 ± 0.14 | 1.917 ± 0.13 | 1.902 ± 0.13 | 1.971 ± 0.14
303.15 K | 2.644 ± 0.18 | 2.111 ± 0.14 | 1.808 ± 0.13 | 1.608 ± 0.11 | 1.479 ± 0.11 | 1.459 ± 0.1 | 1.531 ± 0.11 | 1.568 ± 0.11 | 1.719 ± 0.12

Nc1ccccc1 + CO
298.15 K, 101 kPa
Conditions | viscosity [mPa·s]
x1 = 0.0473 | 0.5608 ± 0.0054
x1 = 0.1001 | 0.5768 ± 0.0056
x1 = 0.1604 | 0.6103 ± 0.0058
x1 = 0.2292 | 0.6583 ± 0.0062
x1 = 0.3082 | 0.7229 ± 0.0068
x1 = 0.4007 | 0.8404 ± 0.0078
x1 = 0.5096 | 1.023 ± 0.0093
x1 = 0.6406 | 1.322 ± 0.012
x1 = 0.8005 | 1.867 ± 0.017

CCNCC + CC(C)O
viscosity [mPa·s], 100 kPa
Conditions | 293.15 K | 298.15 K | 303.15 K | 308.15 K | 313.15 K | 318.15 K | 323.15 K
x1 = 0.0215 | 2.3 ± 0.05 | 1.99 ± 0.04 | 1.72 ± 0.04 | 1.49 ± 0.03 | 1.31 ± 0.03 | 1.15 ± 0.02 | 1.01 ± 0.02
x1 = 0.0807 | 1.99 ± 0.04 | 1.74 ± 0.04 | 1.51 ± 0.03 | 1.31 ± 0.03 | 1.152 ± 0.024 | 1.02 ± 0.02 | 0.9 ± 0.02
x1 = 0.1595 | 1.63 ± 0.03 | 1.44 ± 0.03 | 1.256 ± 0.026 | 1.09 ± 0.02 | 0.97 ± 0.02 | 0.86 ± 0.02 | 0.78 ± 0.02
x1 = 0.2401 | 1.33 ± 0.03 | 1.187 ± 0.025 | 1.05 ± 0.02 | 0.924 ± 0.02 | 0.82 ± 0.02 | 0.732 ± 0.016 | 0.67 ± 0.02
x1 = 0.3491 | 1.02 ± 0.02 | 0.91 ± 0.02 | 0.806 ± 0.017 | 0.72 ± 0.02 | 0.64 ± 0.02 | 0.58 ± 0.01 | 0.54 ± 0.01
x1 = 0.4399 | 0.84 ± 0.02 | 0.75 ± 0.02 | 0.671 ± 0.015 | 0.598 ± 0.013 | 0.54 ± 0.01 | 0.491 ± 0.011 | 0.46 ± 0.01
x1 = 0.5598 | 0.65 ± 0.02 | 0.58 ± 0.01 | 0.527 ± 0.012 | 0.48 ± 0.01 | 0.435 ± 0.01 | 0.396 ± 0.009 | 0.37 ± 0.01
x1 = 0.6501 | 0.551 ± 0.012 | 0.5 ± 0.01 | 0.455 ± 0.01 | 0.416 ± 0.01 | 0.376 ± 0.009 | 0.345 ± 0.008 | 0.32 ± 0.01
x1 = 0.7395 | 0.48 ± 0.01 | 0.43 ± 0.01 | 0.39 ± 0.01 | 0.36 ± 0.01 | 0.33 ± 0.01 | 0.304 ± 0.008 | 0.283 ± 0.007
x1 = 0.8496 | 0.41 ± 0.01 | 0.376 ± 0.009 | 0.343 ± 0.008 | 0.319 ± 0.008 | 0.296 ± 0.008 | 0.271 ± 0.007 | 0.251 ± 0.007
x1 = 0.94 | 0.36 ± 0.01 | 0.336 ± 0.008 | 0.315 ± 0.008 | 0.293 ± 0.007 | 0.274 ± 0.007 | 0.257 ± 0.007 | 0.243 ± 0.007
x2 = 0.0137 | 0.33 ± 0.01 | 0.314 ± 0.008 | 0.298 ± 0.008 | 0.282 ± 0.007 | 0.267 ± 0.007 | 0.251 ± 0.007 | 0.238 ± 0.006

From the CheMixHub viscosity set
